Experimental data published in article PMC8041276 (ACS Chemical Neuroscience, 2021).

Experiments:
5-HT1AR = target: T1, 5-HT1AR (Homo sapiens, UniProt P08908); assay: [3H]-8-OH-DPAT radioligand binding assay, HEK293 cells; conditions: mean of three experiments
T1 construct: expressed in transfected cells
T1 sequence (P08908 1-422): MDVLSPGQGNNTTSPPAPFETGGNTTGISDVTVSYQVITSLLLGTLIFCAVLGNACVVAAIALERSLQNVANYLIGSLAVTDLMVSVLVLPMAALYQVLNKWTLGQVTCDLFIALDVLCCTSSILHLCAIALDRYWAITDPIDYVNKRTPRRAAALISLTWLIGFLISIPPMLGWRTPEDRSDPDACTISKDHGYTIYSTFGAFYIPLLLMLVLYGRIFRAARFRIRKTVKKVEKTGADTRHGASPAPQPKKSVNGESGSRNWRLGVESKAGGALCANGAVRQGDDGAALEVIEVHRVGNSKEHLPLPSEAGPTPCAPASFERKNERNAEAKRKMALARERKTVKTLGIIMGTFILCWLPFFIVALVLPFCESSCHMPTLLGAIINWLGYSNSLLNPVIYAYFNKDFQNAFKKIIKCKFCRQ
Description: (§1) All experiments were carried out according to the previously published procedures.[41]−[43] HEK293 cells stably expressing human 5-HT1A, 5-HT6, 5-HT7b, and D2L receptors (prepared with the use of Lipofectamine 2000) or CHO-K1 cells with plasmid containing the sequence coding for the human serotonin 5-HT2A receptor (PerkinElmer) were maintained at 37 °C in a humidified atmosphere containing 5% CO2 and grown in Dulbecco’s modified Eagle’s medium containing 10% dialyzed fetal bovine serum and 500 μg/mL G418 sulfate. For membrane preparation, cells were cultured in 150 cm^2 flasks, grown to 90% confluence, washed twice with prewarmed to 37 °C phosphate buffered saline (PBS), and centrifuged (200g) in PBS containing 0.1 mM EDTA and 1 mM dithiothreitol. Prior to membrane preparation, pellets were stored at −80 °C. Cell pellets were thawed and homogenized in 10 volumes of assay buffer using an Ultra Turrax tissue homogenizer and centrifuged twice at 35 000g for 15 min at 4 °C, with incubation for 15 min at 37 °C between the centrifugations. The composition of the assay buffers was experimentally selected to achieve the maximum signal window (more details in Supporting Information). All assays were carried out in a total volume of 200 μL in 96-well plates for 1 h at 37 °C except 5-HT1AR and 5-HT2AR which were incubated at room temperature and 27 °C, respectively. The process of equilibration was terminated by rapid filtration through Unifilter plates with a 96-well cell harvester, and radioactivity retained on the filters was quantified on a Microbeta plate reader (PerkinElmer, USA). For displacement studies the assay samples contained the following as radioligands (PerkinElmer, USA): 2.5 nM [^3H]-8-OH-DPAT (135.2 Ci/mmol) for 5-HT1AR; 1 nM [^3H]-ketanserin (53.4 Ci/mmol) for 5-HT2AR; 2 nM [^3H]-LSD (83.6 Ci/mmol) for 5-HT6R; 0.8 nM [^3H]-5-CT (39.2 Ci/mmol) for 5-HT7R or 2.5 nM [^3H]-raclopride (76.0 Ci/mmol) for D2LR. Nonspecific binding was defined in the presence of 10 μM 5-HT in 5-HT1AR and 5-HT7R binding experiments, whereas 20 μM mianserin, 10 μM methiothepine, and 10 μM haloperidol were used in 5-HT2AR, 5-HT6R, and D2LR assays, respectively. Each compound was tested in triplicate at seven concentrations (10^–10–10^–4 M). The inhibition constants (Ki) were calculated from the Cheng–Prusoff equation.[44]

5-HT7R = target: T2, 5-HT7R (Homo sapiens, UniProt P34969); assay: [3H]-5-CT radioligand binding assay, HEK293 cells; conditions: mean of three experiments
T2 construct: expressed in transfected cells
Description: as §1

T2 sequence (P34969 1-432): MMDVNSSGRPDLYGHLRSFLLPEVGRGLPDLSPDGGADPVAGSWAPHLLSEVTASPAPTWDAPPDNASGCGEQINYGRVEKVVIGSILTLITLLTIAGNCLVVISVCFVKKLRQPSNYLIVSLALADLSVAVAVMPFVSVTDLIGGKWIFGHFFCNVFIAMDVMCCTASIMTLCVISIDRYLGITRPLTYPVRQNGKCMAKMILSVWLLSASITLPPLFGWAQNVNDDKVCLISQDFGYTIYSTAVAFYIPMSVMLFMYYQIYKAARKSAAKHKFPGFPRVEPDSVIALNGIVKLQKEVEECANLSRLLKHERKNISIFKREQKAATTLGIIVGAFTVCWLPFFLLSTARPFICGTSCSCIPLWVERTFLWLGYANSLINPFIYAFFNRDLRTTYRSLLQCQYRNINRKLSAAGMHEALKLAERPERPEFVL

Row | Structure (SMILES) | Ki (5-HT1AR) | Ki (5-HT7R)
1 | O=C(N[C@@H]1CCNC1)c1ccn(S(=O)(=O)c2cccc(Cl)c2)c1-c1ccc(F)cc1 [Compound 27, (R)-2-(4-Fluorophenyl)-1-[(3-chlorophenyl)sulfonyl]-N-(pyrrolidin-3-yl)-1H-pyrrole-3-carboxamide] | 53.7 µM | 42 µM
2 | O=C(N[C@H]1CCNC1)c1ccn(S(=O)(=O)c2cccc(Cl)c2)c1-c1ccc(F)cc1 [Compound 28, (S)-2-(4-Fluorophenyl)-1-[(3-chlorophenyl)sulfonyl]-N-(pyrrolidin-3-yl)-1H-pyrrole-3-carboxamide] | 61.5 µM | 3.53 µM
